From patent US20260042799A1, “APPLICATION OF PEPTIDE IN PREPARING DRUGS FOR TREATING AND/OR PREVENTING COGNITIVE IMPAIRMENT” (HUAZHONG UNIVERSITY OF SCIENCE AND TECHNOLOGY, priority 2024, published 2026)
“Also recorded” adds a separate entry of the source. Where no end group is shown, it is not given here.

Tests used:
[1] = Solubility of the synthesized peptide in water; assay type: physicochemical; conditions: white powder
Source text: The sequence of TAT-P6 is shown in SEQ ID NO:3, artificially synthesized by Jiangsu Qiangyao Biotechnology Co., Ltd., and the mass spectrometry analysis is shown in FIG. 1. […] The sequence of TAT-S6 is shown in SEQ ID NO:4, also synthesized by the same company.

[2] = molecular target: T1, binding between HA-GluA2 and EGFP-Syn2b (Homo sapiens, UniProt P42262); test: Co-immunoprecipitation/immunoblotting of Syn2b-GluA2 binding in co-transfected HEK293T cells; assay type: cell-based; conditions: 10 μM peptide in culture medium for 90 minutes, 48 hours after transfection
T1 construct: HA; expressed in transfected cells; host or cells: HEK293T
T1 sequence (P42262 25-883): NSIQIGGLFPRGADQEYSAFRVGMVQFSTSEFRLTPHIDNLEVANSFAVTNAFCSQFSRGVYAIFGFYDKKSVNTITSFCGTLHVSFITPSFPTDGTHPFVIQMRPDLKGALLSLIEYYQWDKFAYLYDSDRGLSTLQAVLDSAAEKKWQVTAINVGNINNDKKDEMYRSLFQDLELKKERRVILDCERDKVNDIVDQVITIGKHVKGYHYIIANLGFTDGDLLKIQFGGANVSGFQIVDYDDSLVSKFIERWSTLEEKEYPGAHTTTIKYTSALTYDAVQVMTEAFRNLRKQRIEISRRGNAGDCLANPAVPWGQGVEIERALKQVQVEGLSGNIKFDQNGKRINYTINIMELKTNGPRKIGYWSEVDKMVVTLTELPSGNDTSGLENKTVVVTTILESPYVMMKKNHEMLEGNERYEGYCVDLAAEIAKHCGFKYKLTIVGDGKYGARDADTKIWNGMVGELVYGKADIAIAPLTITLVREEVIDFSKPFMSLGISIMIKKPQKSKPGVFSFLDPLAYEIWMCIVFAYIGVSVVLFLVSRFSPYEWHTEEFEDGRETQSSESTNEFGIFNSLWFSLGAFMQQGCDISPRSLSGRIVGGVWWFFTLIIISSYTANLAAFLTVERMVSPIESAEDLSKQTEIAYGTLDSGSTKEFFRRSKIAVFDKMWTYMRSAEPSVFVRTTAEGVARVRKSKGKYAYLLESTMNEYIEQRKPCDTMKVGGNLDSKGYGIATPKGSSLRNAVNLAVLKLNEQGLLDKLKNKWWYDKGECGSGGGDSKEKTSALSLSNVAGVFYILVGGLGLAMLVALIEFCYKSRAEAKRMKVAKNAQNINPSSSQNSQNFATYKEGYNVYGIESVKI
Description: First, HA-GluA2 and EGFP-Syn2b overexpression plasmids were transfected into HEK293T cells. After 48 hours of transfection, 10 μM concentration of TAT-P6 and TAT-S6 peptides were given in the cell culture medium for 90 minutes, […] and then cells were collected. The overexpressed Syn2b protein is a fusion protein of Syn2b and GFP, using anti-GFP antibody to precipitate cellular proteins, and then using anti-GluA2 antibody to detect the precipitated proteins, the black imprint on the NC membrane indicates the interaction between GluA2 and Syn2b.
Open field experiment: The open field experiment is an experiment in which animals are placed in a closed open metal box area with a length of 80 cm, width of 80 cm, and height of 50 cm to observe mouse activity. This area is divided into squares, and typically the number of squares crossed by mice within a given time is counted to examine the anxiety emotional state and movement ability of the experimental mice. […] Recording is stopped after observing for a certain time, generally about 5 minutes. • 3) Quantify mouse hippocampal related protein content: immunoblotting; • 4) Disrupting the binding of Syn2b and GluA2 in HEK 293T cells: co-immunoprecipitation, immunoblotting. […]

P301S mice [3] = test: Morris water maze test; assay type: in vivo; conditions: detection stage on the 8th day, 15 mg/kg subcutaneous, 14 days
Source text: (§1) FIG. 3A to FIG. 3J show the statistical chart of TAT-P6 peptide improving mouse learning memory ability results. FIGS. 3A-B are behavioral experiments for four groups of mice (C57 mice injected with TAT-S6 group, C57 mice injected with TAT-P6 group, P301S mice injected with TAT-S6 group, P301S mice injected with TAT-P6 group) using open field test system.
(§2) Male P301S mice 6-8 months old (purchased from Jackson Laboratory), C57/BL6 mice 6-8 months old (purchased from Beijing Vital River Laboratory Animal Technology Co., Ltd.), SPF grade, weight 20-25 grams, raised in conventional environment.
• 1) Mouse spatial memory detection: novel object recognition and water maze; • a) Novel object recognition: Before conducting the novel object recognition test, it is necessary to eliminate unfamiliarity with the mice by petting them daily to prevent stimulation during operation. The first stage is adaptation period. Mice move freely in the experimental device (without objects) for 10 minutes. The second stage is familiarization period. […] Within 5 min (many experiments have proven that after 2 min of familiarization period, animals already show good preference for novel objects, and of course, 3 min of familiarization makes the preference more obvious), the number of times, time, and distance the animal explores each object are measured. […] During training, the mouse is gently placed in the water from a ½ radian position of any quadrant with its head facing the pool wall, and its latency period (the time taken by the mouse to find the platform from entering the water) and path are detected as indicators to measure the mouse's learning memory and test performance. […] If the platform is not found within 90 s, the system automatically stops recording, and the latency period is recorded as 90 s. […] The initial training period is 6 days, with daily recording of the time needed for mice to find the platform, recorded as the latency period required for mice to find the platform. […]

P301S mice [4] = test: Novel object recognition test; assay type: in vivo; conditions: 15 mg/kg subcutaneous, 14 days
Source text: as §1, §2
• 1) Mouse spatial memory detection: novel object recognition and water maze; • a) Novel object recognition: Before conducting the novel object recognition test, it is necessary to eliminate unfamiliarity with the mice by petting them daily to prevent stimulation during operation. The first stage is adaptation period. […] Within 5 min (many experiments have proven that after 2 min of familiarization period, animals already show good preference for novel objects, and of course, 3 min of familiarization makes the preference more obvious), the number of times, time, and distance the animal explores each object are measured. […] If the platform is not found within 90 s, the system automatically stops recording, and the latency period is recorded as 90 s. […]

P301S mice [5] = test: Open field test, P301S mice; assay type: in vivo; conditions: C57 and P301S mice, 15 mg/kg subcutaneous, 14 days
Source text: as §1, §2
Open field experiment: The open field experiment is an experiment in which animals are placed in a closed open metal box area with a length of 80 cm, width of 80 cm, and height of 50 cm to observe mouse activity. This area is divided into squares, and typically the number of squares crossed by mice within a given time is counted to examine the anxiety emotional state and movement ability of the experimental mice. […] The experimental area is set up on the computer, the experimental area is divided equally into a “ ? ” shape, with the innermost circle as the central region and the outermost as the peripheral region, then the camera is turned on, the light source is adjusted, and information such as the position, movement route, and distance of the experimental mice is recorded using the computer. […]

Row | Sequence | solubility in water [1] | GluA2 detected by anti-GluA2 antibody in anti-GFP (Syn2b) precipitate; interaction between Syn2b and GluA2 [2] | latency to reach the platform in the water maze (P301S mice [3]) | number of times crossing the platform position in the water maze (P301S mice [3]) | time spent in the target quadrant in the water maze (P301S mice [3]) | time spent at the new object (P301S mice [4]) | movement ability of mice (P301S mice [5])
1 | YGRKKRRQRRRYILDCN [TAT-P6, YGRKKRRQRRRYILDCN] | completely soluble; also recorded: completely dissolved in water |  |  |  |  |  | 
2 | YGRKKRRQRRRCNDILY [TAT-S6] |  | could be clearly detected | prolonged latency to reach the platform | crossed the platform significantly fewer times | spent significantly less time in the target quadrant | spent less time at the new object | did not change the movement ability
